Each block holds one molecule with its values, some of them ahead of it.
Legend:
[1] = molecular target: Serine/threonine-protein kinase DCLK1 (Homo sapiens) (UniProt O15075); assay: Selectivity interaction (KinomeScan (DiscoverX)) EUB0000178b DCLK1; conditions: at 1 µM
[2] = molecular target: Phosphatidylinositol 4,5-bisphosphate 3-kinase catalytic subunit gamma isoform (Homo sapiens, UniProt P48736); assay: Selectivity interaction (KinomeScan (DiscoverX)) EUB0000178b PIK3CG; conditions: at 1 µM
[3] = molecular target: Glycogen synthase kinase-3 beta (Homo sapiens, UniProt P49841); assay: Selectivity interaction (Kinase panel (University of Dundee)) EUB0000169b GSK3B; conditions: at 10 µM
[4] = molecular target: Ribosomal protein S6 kinase alpha-1 (Homo sapiens) (UniProt Q15418); conditions: at 10 µM
[5] = molecular target: MAP kinase-activated protein kinase 5 (Homo sapiens) (UniProt Q8IW41); conditions: at 10 µM
[6] = molecular target: Serine/threonine-protein kinase RIO3 (Homo sapiens) (UniProt O14730); assay: Selectivity interaction (KinomeScan (DiscoverX)) EUB0000698a RIOK3; conditions: at 10 µM
[7] = molecular target: Serine/threonine-protein kinase RIO1 (Homo sapiens) (UniProt Q9BRS2); assay: Selectivity interaction (KinomeScan (DiscoverX)) EUB0000698a RIOK1; conditions: at 10 µM
[8] = molecular target: T1, Dual specificity mitogen-activated protein kinase kinase 5 (Homo sapiens) (UniProt Q13163); assay: Selectivity interaction (KinomeScan (DiscoverX)) EUB0000698a MAP2K5; conditions: at 10 µM
T1 sequence (whole entry): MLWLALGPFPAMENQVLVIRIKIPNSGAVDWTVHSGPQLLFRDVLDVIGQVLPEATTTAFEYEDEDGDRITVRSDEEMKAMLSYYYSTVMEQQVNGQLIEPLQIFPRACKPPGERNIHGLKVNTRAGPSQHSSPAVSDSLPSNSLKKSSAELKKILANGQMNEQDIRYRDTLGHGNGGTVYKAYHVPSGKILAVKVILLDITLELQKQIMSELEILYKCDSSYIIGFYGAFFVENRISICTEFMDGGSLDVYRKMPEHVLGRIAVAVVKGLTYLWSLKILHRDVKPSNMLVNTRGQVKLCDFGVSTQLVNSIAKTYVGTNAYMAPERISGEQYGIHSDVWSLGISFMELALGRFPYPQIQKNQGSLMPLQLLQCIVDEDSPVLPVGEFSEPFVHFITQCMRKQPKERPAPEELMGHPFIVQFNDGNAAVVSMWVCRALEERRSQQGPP

[9] = molecular target: T2, Phosphatidylinositol 5-phosphate 4-kinase type-2 beta (Homo sapiens) (UniProt P78356); assay: Selectivity interaction (KinomeScan (DiscoverX)) EUB0000698a PIP4K2B; conditions: at 10 µM
T2 sequence (whole entry): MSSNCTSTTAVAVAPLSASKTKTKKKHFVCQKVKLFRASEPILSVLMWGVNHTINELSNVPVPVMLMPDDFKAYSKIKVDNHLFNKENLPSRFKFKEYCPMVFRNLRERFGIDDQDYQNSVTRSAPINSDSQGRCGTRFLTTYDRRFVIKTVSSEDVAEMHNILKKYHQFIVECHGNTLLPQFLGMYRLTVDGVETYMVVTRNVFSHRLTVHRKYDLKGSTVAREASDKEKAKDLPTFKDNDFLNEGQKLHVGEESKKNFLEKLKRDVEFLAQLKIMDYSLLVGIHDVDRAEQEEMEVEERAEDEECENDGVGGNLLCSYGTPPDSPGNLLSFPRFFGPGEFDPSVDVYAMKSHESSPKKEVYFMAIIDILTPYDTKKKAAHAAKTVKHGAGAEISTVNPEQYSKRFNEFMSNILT

Aurora kinase B = Aurora kinase B (Homo sapiens, UniProt Q96GD4); assay: Selectivity interaction (KinomeScan (DiscoverX)) EUB0000702a AURKB; conditions: at 1 µM
[10] = molecular target: Serine/threonine-protein kinase WNK4 (Homo sapiens) (UniProt Q96J92); assay: Selectivity interaction (KinomeScan (DiscoverX)) EUB0000702a WNK4; conditions: at 1 µM
[11] = molecular target: G protein-coupled receptor kinase 4 (Homo sapiens) (UniProt P32298); assay: Selectivity interaction (KinomeScan (DiscoverX)) EUB0000702a GRK4; conditions: at 1 µM
[12] = molecular target: Tyrosine-protein kinase JAK2 (Homo sapiens, UniProt O60674); assay: Selectivity interaction (KinomeScan (DiscoverX)) EUB0000138c JAK2; conditions: at 100 nM
[13] = molecular target: Muscle, skeletal receptor tyrosine-protein kinase (Homo sapiens) (UniProt O15146); conditions: at 1 µM
[14] = molecular target: Macrophage colony-stimulating factor 1 receptor (Homo sapiens) (UniProt P07333); conditions: at 1 µM
[15] = molecular target: Tyrosine-protein kinase receptor Tie-1 (Homo sapiens) (UniProt P35590); conditions: at 1 µM
[16] = system: T3, Receptor-type tyrosine-protein kinase FLT3 (Homo sapiens), P36888 [D835V]; assay: Selectivity interaction (KinomeScan (DiscoverX)) EUB0000305b FLT3; conditions: at 100 nM
T3 sequence (whole entry): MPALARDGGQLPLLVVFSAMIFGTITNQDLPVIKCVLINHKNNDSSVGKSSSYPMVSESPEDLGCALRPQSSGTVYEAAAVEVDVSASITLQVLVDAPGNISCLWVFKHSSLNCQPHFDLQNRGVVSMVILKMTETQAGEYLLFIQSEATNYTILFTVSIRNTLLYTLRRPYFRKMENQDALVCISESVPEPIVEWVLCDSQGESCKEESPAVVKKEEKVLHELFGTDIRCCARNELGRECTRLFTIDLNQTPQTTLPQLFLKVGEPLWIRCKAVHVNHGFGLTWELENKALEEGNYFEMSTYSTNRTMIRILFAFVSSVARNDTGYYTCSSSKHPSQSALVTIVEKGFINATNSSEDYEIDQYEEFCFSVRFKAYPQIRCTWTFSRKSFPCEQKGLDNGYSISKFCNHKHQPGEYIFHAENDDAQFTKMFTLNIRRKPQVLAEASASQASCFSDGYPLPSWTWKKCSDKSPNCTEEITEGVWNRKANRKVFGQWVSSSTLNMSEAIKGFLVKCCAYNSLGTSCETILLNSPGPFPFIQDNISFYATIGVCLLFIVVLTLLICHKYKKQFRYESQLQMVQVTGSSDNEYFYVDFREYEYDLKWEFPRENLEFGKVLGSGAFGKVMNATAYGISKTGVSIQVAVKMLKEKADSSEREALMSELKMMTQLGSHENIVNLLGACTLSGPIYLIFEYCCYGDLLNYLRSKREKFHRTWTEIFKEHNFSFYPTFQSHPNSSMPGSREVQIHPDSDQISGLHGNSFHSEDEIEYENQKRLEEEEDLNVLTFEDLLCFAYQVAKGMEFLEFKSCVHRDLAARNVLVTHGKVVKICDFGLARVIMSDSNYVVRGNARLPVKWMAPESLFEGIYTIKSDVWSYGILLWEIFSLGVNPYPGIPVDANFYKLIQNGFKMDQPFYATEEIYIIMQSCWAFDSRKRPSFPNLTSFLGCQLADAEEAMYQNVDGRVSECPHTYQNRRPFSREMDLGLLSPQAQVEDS

Chain of Tyrosine-protein kinase receptor Tie-1 (Homo sapiens) (P35590 whole entry): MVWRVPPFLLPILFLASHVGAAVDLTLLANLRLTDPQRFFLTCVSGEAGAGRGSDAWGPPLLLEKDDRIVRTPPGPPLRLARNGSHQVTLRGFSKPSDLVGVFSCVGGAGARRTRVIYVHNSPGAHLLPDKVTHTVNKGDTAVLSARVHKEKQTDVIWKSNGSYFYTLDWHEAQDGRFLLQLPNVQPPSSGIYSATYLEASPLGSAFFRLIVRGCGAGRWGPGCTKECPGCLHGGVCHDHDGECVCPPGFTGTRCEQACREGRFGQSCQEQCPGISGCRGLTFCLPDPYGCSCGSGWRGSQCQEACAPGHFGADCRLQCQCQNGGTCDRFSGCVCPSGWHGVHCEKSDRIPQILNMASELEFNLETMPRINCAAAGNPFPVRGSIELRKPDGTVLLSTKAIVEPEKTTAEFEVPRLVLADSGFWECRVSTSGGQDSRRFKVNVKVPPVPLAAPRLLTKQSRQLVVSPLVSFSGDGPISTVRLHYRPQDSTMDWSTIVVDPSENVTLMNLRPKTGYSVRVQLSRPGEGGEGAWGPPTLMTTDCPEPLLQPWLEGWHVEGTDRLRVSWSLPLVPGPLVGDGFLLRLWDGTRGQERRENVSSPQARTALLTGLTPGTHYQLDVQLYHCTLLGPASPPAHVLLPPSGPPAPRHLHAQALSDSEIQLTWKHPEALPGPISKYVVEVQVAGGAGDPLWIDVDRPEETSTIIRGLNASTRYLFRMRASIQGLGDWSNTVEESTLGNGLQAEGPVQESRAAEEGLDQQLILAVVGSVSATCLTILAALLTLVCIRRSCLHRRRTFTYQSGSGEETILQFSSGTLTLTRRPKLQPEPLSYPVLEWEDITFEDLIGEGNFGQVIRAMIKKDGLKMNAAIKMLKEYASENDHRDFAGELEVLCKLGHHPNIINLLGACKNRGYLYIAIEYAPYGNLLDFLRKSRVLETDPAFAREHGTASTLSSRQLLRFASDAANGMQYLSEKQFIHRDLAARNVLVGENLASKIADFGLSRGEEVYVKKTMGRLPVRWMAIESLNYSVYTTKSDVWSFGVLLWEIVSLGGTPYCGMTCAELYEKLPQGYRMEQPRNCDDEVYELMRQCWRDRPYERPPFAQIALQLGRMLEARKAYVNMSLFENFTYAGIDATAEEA
Chain of Serine/threonine-protein kinase WNK4 (Homo sapiens) (Q96J92 whole entry): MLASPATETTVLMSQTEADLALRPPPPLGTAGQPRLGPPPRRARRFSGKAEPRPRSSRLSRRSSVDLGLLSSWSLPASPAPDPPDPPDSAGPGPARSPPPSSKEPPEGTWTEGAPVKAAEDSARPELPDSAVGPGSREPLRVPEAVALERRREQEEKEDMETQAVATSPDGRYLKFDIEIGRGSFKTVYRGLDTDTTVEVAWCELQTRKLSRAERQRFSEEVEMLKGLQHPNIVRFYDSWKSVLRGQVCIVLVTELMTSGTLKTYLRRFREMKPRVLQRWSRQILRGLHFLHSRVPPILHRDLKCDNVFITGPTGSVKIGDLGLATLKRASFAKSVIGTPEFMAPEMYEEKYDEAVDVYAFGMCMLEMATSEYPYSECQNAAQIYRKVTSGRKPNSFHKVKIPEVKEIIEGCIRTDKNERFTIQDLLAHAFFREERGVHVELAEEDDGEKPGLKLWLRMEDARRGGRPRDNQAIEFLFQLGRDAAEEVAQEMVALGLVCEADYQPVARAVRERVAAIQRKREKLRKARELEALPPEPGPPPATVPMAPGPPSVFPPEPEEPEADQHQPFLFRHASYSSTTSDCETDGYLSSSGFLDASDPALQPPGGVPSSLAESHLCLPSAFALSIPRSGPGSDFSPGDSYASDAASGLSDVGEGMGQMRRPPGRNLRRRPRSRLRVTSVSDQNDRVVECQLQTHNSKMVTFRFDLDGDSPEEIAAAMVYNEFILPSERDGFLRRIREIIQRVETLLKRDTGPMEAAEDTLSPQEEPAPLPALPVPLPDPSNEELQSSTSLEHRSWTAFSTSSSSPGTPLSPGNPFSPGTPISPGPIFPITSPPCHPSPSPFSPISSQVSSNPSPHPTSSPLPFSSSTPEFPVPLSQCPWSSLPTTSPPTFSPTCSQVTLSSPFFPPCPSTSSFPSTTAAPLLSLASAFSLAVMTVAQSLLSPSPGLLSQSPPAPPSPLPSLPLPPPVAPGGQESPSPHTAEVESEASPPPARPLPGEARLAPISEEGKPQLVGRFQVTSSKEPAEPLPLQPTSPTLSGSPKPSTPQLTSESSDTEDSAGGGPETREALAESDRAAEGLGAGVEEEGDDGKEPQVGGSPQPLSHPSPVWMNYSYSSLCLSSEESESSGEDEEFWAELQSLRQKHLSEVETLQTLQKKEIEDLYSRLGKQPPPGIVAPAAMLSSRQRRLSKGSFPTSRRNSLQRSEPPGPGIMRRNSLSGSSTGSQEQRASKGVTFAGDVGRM
Chain of MAP kinase-activated protein kinase 5 (Homo sapiens) (Q8IW41 whole entry): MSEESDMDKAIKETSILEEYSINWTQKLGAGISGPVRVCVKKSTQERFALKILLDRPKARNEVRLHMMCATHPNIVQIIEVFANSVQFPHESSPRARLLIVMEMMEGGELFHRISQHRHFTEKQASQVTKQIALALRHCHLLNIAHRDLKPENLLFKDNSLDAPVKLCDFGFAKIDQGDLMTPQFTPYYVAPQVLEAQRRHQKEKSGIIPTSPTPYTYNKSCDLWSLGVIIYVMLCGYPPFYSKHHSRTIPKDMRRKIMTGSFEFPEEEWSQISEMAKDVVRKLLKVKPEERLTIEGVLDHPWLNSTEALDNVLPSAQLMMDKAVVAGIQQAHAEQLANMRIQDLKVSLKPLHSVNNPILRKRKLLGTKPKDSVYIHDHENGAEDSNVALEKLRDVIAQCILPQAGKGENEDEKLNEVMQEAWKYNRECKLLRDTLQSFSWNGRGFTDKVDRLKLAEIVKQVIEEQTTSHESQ
Chain of Ribosomal protein S6 kinase alpha-1 (Homo sapiens) (Q15418 whole entry, looked up): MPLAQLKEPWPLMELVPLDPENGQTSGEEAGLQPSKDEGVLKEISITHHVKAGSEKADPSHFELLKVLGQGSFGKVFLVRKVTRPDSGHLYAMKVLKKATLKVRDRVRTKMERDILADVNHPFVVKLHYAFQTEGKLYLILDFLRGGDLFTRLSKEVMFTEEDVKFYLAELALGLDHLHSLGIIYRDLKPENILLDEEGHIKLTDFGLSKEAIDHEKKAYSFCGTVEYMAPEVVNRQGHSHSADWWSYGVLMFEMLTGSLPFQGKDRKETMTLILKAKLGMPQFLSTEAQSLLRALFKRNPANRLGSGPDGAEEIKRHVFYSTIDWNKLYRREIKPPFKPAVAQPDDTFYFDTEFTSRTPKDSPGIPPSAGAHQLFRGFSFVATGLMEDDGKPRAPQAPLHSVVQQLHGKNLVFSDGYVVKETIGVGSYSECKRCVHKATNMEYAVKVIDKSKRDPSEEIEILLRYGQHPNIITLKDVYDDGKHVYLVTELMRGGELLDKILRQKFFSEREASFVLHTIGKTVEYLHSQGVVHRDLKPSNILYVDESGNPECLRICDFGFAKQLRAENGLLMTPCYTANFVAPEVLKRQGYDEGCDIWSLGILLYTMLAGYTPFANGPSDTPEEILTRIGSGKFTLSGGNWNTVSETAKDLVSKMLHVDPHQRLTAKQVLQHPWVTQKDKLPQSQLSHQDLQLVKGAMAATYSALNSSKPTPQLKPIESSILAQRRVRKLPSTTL
Chain of Glycogen synthase kinase-3 beta (P49841 whole entry, looked up): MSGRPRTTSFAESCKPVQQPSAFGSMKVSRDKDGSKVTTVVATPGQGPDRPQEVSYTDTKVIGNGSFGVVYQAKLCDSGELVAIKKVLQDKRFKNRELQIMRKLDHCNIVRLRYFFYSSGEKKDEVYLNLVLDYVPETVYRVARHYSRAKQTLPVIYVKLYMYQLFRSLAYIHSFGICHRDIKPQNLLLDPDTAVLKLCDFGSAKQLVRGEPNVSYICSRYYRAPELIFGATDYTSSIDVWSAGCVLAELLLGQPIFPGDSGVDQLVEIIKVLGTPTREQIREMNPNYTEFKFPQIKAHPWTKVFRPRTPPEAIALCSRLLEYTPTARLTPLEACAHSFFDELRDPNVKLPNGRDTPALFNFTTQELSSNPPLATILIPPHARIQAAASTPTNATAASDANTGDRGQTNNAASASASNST
Chain of Serine/threonine-protein kinase RIO1 (Homo sapiens) (Q9BRS2 whole entry): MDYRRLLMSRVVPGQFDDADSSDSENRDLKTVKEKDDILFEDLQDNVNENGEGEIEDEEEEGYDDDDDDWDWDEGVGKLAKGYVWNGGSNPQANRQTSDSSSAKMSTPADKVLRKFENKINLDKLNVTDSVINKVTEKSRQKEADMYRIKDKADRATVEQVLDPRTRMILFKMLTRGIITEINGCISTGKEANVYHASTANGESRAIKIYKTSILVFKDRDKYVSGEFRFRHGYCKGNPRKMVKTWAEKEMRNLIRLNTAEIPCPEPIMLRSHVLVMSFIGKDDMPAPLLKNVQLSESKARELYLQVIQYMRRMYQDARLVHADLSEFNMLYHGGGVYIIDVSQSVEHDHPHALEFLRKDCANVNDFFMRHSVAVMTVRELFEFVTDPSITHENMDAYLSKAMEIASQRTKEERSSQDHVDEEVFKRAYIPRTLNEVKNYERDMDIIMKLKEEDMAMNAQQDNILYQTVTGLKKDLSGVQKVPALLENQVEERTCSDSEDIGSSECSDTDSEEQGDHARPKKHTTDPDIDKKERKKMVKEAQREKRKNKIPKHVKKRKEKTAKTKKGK
Chain of Aurora kinase B (Q96GD4 whole entry): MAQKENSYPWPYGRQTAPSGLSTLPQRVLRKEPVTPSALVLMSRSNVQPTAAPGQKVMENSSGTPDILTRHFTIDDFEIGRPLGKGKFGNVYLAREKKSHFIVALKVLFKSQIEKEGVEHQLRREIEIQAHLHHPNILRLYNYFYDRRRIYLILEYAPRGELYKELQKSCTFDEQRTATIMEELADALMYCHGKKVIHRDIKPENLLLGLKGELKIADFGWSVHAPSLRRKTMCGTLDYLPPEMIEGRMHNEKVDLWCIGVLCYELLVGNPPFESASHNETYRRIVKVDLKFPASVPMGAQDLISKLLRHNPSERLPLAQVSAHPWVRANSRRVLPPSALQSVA

% of control [1]: 8.3%
% of control [2]: 0.15%
SMILES: CN1C(=O)c2sccc2N(C)c2nc(Nc3ccc(S(N)(=O)=O)cc3)ncc21

% of control [3]: 69%
% of control [4]: 13.8%
% of control [5]: 86%
SMILES: CC[C@@H]1C(=O)N(C)c2cnc(Nc3ccc(C(=O)NC4CCN(C)CC4)cc3OC)nc2N1C1CCCC1

% of control [6]: 4.2%
% of control [7]: 4.1%
% of control [8]: 0.5%
% of control [9]: 6.6%
SMILES: COc1cc2ncn(-c3cc(OCc4ccccc4C(F)(F)F)c(C(N)=O)s3)c2cc1OC [GW843682X]

% of control (Aurora kinase B): 9.9%
% of control [10]: 0%
% of control [11]: 10%
SMILES: CN(c1ccnc(CNc2nc(Nc3ccc4c(c3)CC(=O)N4)ncc2C(F)(F)F)n1)S(C)(=O)=O [PF-00911705]

% of control [12]: 4.8%
SMILES: CNC(=O)c1ccc(Nc2ncc(C(F)(F)F)c(NCc3nccnc3N(C)S(C)(=O)=O)n2)cc1 [DEFACTINIB]

SMILES: CCOc1cn(-c2ccc(F)cc2C)nc1C(=O)Nc1ccc(Oc2ccnc3cc(OC)c(OC)cc23)c(F)c1
% of control [13]: < 10%
% of control [14]: < 10%
% of control [15]: < 10%

% of control [16]: 32%
SMILES: C[C@H](c1ccnc(Nc2nc3ccc(-c4cc(N(C)C)ncn4)cc3[nH]2)c1)N1CCN(C(=O)CC(F)(F)F)CC1 [BAY-985]

Reference: ChEMBL document CHEMBL5212743, “Selectivity Literature for EUbOPEN Chemogenomics Library wave 3” (2023)
